According to ChEMBL document CHEMBL5260805, “Therapeutic journey of 2,4-thiazolidinediones as a versatile scaffold: An insight into structure activity relationship” (Eur J Med Chem, 2017):
In brackets after ≈: the same amount, converted by molar mass.

Assays:
[1] = organism: Rattus norvegicus; assay: Antidiabetic activity in Wistar rat assessed as increase in glucose uptake in presence of insulin after 45 mins; assay type: functional; conditions: 0.75 h
[2] = organism: Rattus norvegicus; assay: Antidiabetic activity in Wistar rat assessed as increase in glucose uptake in absence of insulin after 45 mins; assay type: functional; conditions: 0.75 h
[3] = tested on: Pichia kudriavzevii; assay: Antifungal activity against Candida krusei; assay type: functional
[4] = tested on: Candida albicans; assay: Antifungal activity against Candida albicans; assay type: functional
[5] = tested on: Candida parapsilosis; assay: Antifungal activity against Candida parapsilosis; assay type: functional; conditions: Lodderomyces parapsilosis
[6] = tested on: Nakaseomyces glabratus; assay: Antifungal activity against Candida glabrata; assay type: functional
[7] = tested on: Mus musculus; assay: Hypolipidemic activity in C57BL/6J db/db mouse assessed as reduction in triglyceride level at 200 mg/kg; assay type: functional; parameters: scale not given: the % may be the effect or the level left
[8] = tested on: Mus musculus; assay: Hypoglycemic activity in C57BL/6J db/db mouse assessed as reduction in blood glucose level at 50 mg/kg after 3 days; assay type: functional; parameters: scale not given: the % may be the effect or the level left; conditions: time 3 day
[9] = organism: Rattus norvegicus; assay: Hypolipidemic activity in alloxan induced diabetic rat model assessed as increase in HDL; assay type: functional
[10] = organism: Rattus norvegicus; assay: Hypolipidemic activity in alloxan induced diabetic rat model assessed as increase in HDL/LDL ratio; assay type: functional
[11] = tested on: Staphylococcus aureus; assay: Antibacterial activity against Staphylococcus aureus ATCC 9144; assay type: functional
[12] = tested on: Escherichia coli; assay: Antibacterial activity against Escherichia coli ATCC 25922; assay type: functional
[13] = tested on: Aspergillus niger; assay: […] activity against Aspergillus niger ATCC-9029; assay type: functional
[14] = tested on: Staphylococcus epidermidis; assay: Antibacterial activity against Staphylococcus epidermidis ATCC-155; assay type: functional
[15] = tested on: Pseudomonas aeruginosa; assay: Antibacterial activity against Pseudomonas aeruginosa […]; assay type: functional
[16] = tested on: Aspergillus fumigatus; assay: […] activity against Aspergillus fumigatus ATCC-46645; assay type: functional
[17] = biological target: Peroxisome proliferator-activated receptor gamma (Homo sapiens, UniProt P37231); assay: Agonist activity at human PPARgamma transfected in HEK293 cells assessed increase in luciferase activity incubated for 24 hrs; assay type: cell-based
[18] = tested on: Escherichia coli; assay: Antibacterial activity against Escherichia coli; assay type: functional
[19] = tested on: Aspergillus niger; assay: Antifungal activity against Aspergillus niger; assay type: functional
[20] = tested on: Staphylococcus aureus; assay: Antibacterial activity against Staphylococcus aureus; assay type: functional
[21] = tested on: Bacillus subtilis; assay: Antibacterial activity against Bacillus subtilis; assay type: functional
[22] = tested on: Salmonella typhimurium; assay: Antibacterial activity against Salmonella typhimurium; assay type: functional, Salmonella enterica subsp. enterica serovar Typhimurium; conditions: Salmonella enterica
[23] = tested on: Pseudomonas aeruginosa; assay: Antibacterial activity against Pseudomonas aeruginosa; assay type: functional
[24] = tested on: Mus musculus; assay: Hypolipidemic activity in db/db mouse assessed as reduction in triglyceride level at 30 mg/kg/day, po administered for 6 days; assay type: functional; parameters: scale not given: the % may be the effect or the level left; conditions: time 6 day
[25] = tested on: Mus musculus; assay: Hypoglycemic activity in db/db mouse assessed as reduction in blood glucose level at 30 mg/kg/day, po administered for 6 days; assay type: functional; parameters: scale not given: the % may be the effect or the level left; conditions: time 6 day
[26] = biological target: Human immunodeficiency virus type 1 reverse transcriptase (Human immunodeficiency virus 1, UniProt Q72547); assay: Inhibition of HIV-1 reverse transcriptase
[27] = biological target: Human immunodeficiency virus type 1 reverse transcriptase (Human immunodeficiency virus 1) (UniProt Q72547); assay: Inhibition of HIV-1 reverse transcriptase relative to control; conditions: concentration not given here
[28] = tested on: Klebsiella pneumoniae; assay: Antibacterial activity against Klebsiella pneumoniae; assay type: functional
[29] = organism: Mus musculus; assay: Antihyperglycemic activity in sucrose loaded mouse model assessed as decrease in blood glucose level; assay type: functional; parameters: scale not given: the % may be the effect or the level left
[30] = tested on: Mus musculus; assay: Hypoglycemic activity in db/db mouse assessed as reduction in blood glucose level at 100 mg/kg/day; assay type: functional
[31] = tested on: RAW264.7; assay: Inhibition of LPS-induced NO production in mouse RAW264.7 cells; assay type: functional
[32] = organism: Mus musculus; assay: Hypolipidemic activity in KKAY mouse assessed as reduction in triglyceride level; assay type: functional
[33] = organism: Mus musculus; assay: Hypoglycemic activity in KKAY mouse assessed as reduction in blood glucose level; assay type: functional
[34] = Inhibition of bacterial peptide deformylase; parameters: species or system Bacteria
[35] = biological target: Peroxisome proliferator-activated receptor gamma (Homo sapiens) (UniProt P37231); assay: Agonist activity at PPARgamma (unknown origin) assessed as fold increase at 10 uM by luciferase reporter gene assay; conditions: filed as agonist
[36] = biological target: Hexokinase-4 (Homo sapiens) (UniProt P35557); assay: Agonist activity at glucokinase (unknown origin) assessed as fold increase at 10 uM by luciferase reporter gene assay; conditions: filed as agonist
[37] = biological target: Xanthine dehydrogenase/oxidase (Homo sapiens, UniProt P47989); assay: Inhibition of human milk xanthine oxidase relative to control
[38] = Inhibition of bovine lens ALR2; assay type: tissue-based, Bos taurus
[39] = biological target: Peroxisome proliferator-activated receptor gamma (Homo sapiens) (UniProt P37231); assay: Transactivation of PPARgamma (unknown origin) expressed in HEK293 cells at 10 uM after 24 hrs by luminometer assay; assay type: cell-based; conditions: filed as activator
[40] = tested on: Mus musculus; assay: Hypolipidemic activity in db/db mouse assessed as reduction in triglyceride level at 10 mg/kg; assay type: functional; parameters: scale not given: the % may be the effect or the level left
[41] = tested on: Mus musculus; assay: Hypoglycemic activity in db/db mouse assessed as reduction in blood glucose level at 10 mg/kg; assay type: functional; parameters: scale not given: the % may be the effect or the level left
[42] = organism: Rattus norvegicus; assay: Antidiabetic activity in Wistar rat assessed as reduction in blood glucose level after 120 mins; assay type: functional; conditions: 2 h
[43] = Bacillus subtilis, read-out: MIC

O=C(CN1C(=O)S/C(=C\c2ccc(Br)cc2)C1=O)Nc1ccc(C(=O)O)cc1
Activity [1]: 47.65 mg/dL
Activity [2]: 34.71 mg/dL

O=C(CN1C(=O)S/C(=C\c2cccc(-c3cc(=O)c4ccccc4o3)c2)C1=O)c1ccc(F)cc1
MIC [3]: 6.25 µg/mL (≈ 12.9 µM)
MIC [4]: 6.25 µg/mL (≈ 12.9 µM)
MIC [5]: 6.25 µg/mL (≈ 12.9 µM)
MIC [6]: 6.25 µg/mL (≈ 12.9 µM)

O=C1NC(=O)C(Cc2ccc(OCCn3ccc4ccccc43)cc2)S1 (stereo unspecified)
Activity [7]: 77%
Activity [8]: 60%

CN(CCOc1ccc(CC2SC(=O)NC2=O)cc1)Cc1nc(N2CCOCC2)nc(N2CCOCC2)n1 (stereo unspecified)
Activity [9]: 3.16%
Ratio [10]: 4.02

COC(=O)CN1C(=O)S/C(=C\c2cn(CC(=O)OC)cn2)C1=O
MIC [11]: 3.8 µg/mL (≈ 11.2 µM)
MIC [12]: 1.6 µg/mL (≈ 4.72 µM)
MIC [13]: 7.9 µg/mL (≈ 23.3 µM)
MIC [14]: 2.2 µg/mL (≈ 6.48 µM)
MIC [15]: 2.8 µg/mL (≈ 8.25 µM)
MIC [16]: 1.7 µg/mL (≈ 5.01 µM)

COC(=O)/C(=C\c1cc(OC)cc(OC)c1)c1ccc(Oc2ccc(CC3SC(=O)NC3=O)cc2)cc1 (stereo unspecified)
EC50 [17]: 0.284 µM

CC1(C)S[C@@H]2[C@H](NC(=O)[C@H](N)c3ccccc3)C(=O)N2[C@H]1C(=O)O [AMPICILLIN]
MIC [18]: 100 µg/mL (≈ 286 µM)
MIC [4]: 500 µg/mL (≈ 1430 µM)

OC(Cn1cncn1)(Cn1cncn1)c1ccc(F)cc1F [FLUCONAZOLE]
MIC [19]: 12.5 µg/mL (≈ 40.8 µM)
MIC [4]: 12.5 µg/mL (≈ 40.8 µM)

O=C(O)c1cn(C2CC2)c2cc(N3CCNCC3)c(F)cc2c1=O [CIPROFLOXACIN]
MIC [20]: 0.78 µg/mL (≈ 2.35 µM)
MIC [21, 43]: 0.78 µg/mL (≈ 2.35 µM)
MIC [22]: 0.78 µg/mL (≈ 2.35 µM)
MIC [23]: 0.78 µg/mL (≈ 2.35 µM)

CCc1nc(C)cc(=O)n1CCOc1ccc(CC2SC(=O)NC2=O)cc1 (stereo unspecified)
Activity [24]: 85%
Activity [25]: 73%

Cc1ccc(C)c(/C=C2\SC(=O)N(CCC(=O)Nc3ccccc3O)C2=O)c1
IC50 [26]: 1.31 µM
MIC [21, 43]: 6.25 µg/mL (≈ 15.8 µM)
MIC [22]: 6.25 µg/mL (≈ 15.8 µM)
inhibition [27]: 73%
MIC [28]: 6.25 µg/mL (≈ 15.8 µM)
MIC [19]: 25 µg/mL (≈ 63.1 µM)
MIC [23]: 6.25 µg/mL (≈ 15.8 µM)
MIC [18]: 6.25 µg/mL (≈ 15.8 µM)
MIC [4]: 12.5 µg/mL (≈ 31.5 µM)

CN(C)C(=N)NC(=N)N [METFORMIN]
Activity [29]: -34.1%

Cc1c(C)c2c(c(C)c1OCc1ccccc1)C(CN1CCC[C@H]1COc1ccc(/C=C3\SC(=O)NC3=O)cc1)C(C)(C)O2 (stereo partly specified)
Activity [30]: 8 mM

COc1cc(/C=C2\SC(=O)NC2=O)cc(OC)c1OC
MIC [20]: 200 µg/mL (≈ 677 µM)
MIC [18]: 250 µg/mL (≈ 847 µM)

CC(C)c1ccc(N(C)CCOc2ccc(CC3SC(=O)NC3=O)cc2)cc1 (stereo unspecified)
inhibition (INH) [31]: 51.5%

CN(CCOc1ccc(CC2SC(=O)NC2=O)cc1)c1cc(-c2ccccc2)ccn1 (stereo unspecified)
ED25 [32]: 2.5 mg/kg/day
ED25 [33]: 0.02 mg/kg/day

N#Cc1ccccc1-c1ccc(CN2C(=O)S/C(=C\c3c(Cl)cccc3Cl)C2=O)cc1
MIC [21]: 100 µg/mL (≈ 215 µM)
MIC [21, 43]: 63.6 µg/mL (≈ 137 µM)
IC50 [34]: 132 µM
MIC [18]: 63.6 µg/mL (≈ 137 µM)

CCOC(=O)CN1C(=O)SC(Cc2ccc(O)cc2)C1=O (stereo unspecified)
Activity [29]: -26.7%

CC(C)OC(=O)c1ccc(NC(=O)Cc2ccc(/C=C3\SC(=O)NC3=O)cc2[N+](=O)[O-])nc1
Activity [35]: 48%
fold change (FC) [36]: 2.9

CCc1ccc(CCOc2ccc(CC3SC(=O)N(CCCCCCC#N)C3=O)cc2)nc1 (stereo unspecified)
inhibition (INH) [37]: 72%

O=C(O)CN1C(=O)S/C(=C\c2cccc(Oc3ccccc3)c2)C1=O
IC50 [38]: 0.13 µM

COc1cc(Br)cc(CC2SC(=O)NC2=O)c1CC(=O)O (stereo unspecified)
Activity [39]: 65%

Cc1nn(COc2ccc(CC3SC(=O)NC3=O)cc2)c(=O)c2ccccc12 (stereo unspecified)
Activity [40]: 68%
Activity [41]: 72%

COc1cc(/C=C2\SC(=O)N(CC(=O)O)C2=O)cc(OC)c1OC
Activity [42]: 104 mg/dL

O=C(CN1C(=O)S/C(=C\c2cccc(-c3cc(=O)c4ccccc4o3)c2)C1=O)c1ccc([N+](=O)[O-])cc1
MIC [3]: 6.25 µg/mL (≈ 12.2 µM)
MIC [4]: 6.25 µg/mL (≈ 12.2 µM)
MIC [5]: 6.25 µg/mL (≈ 12.2 µM)
MIC [6]: 6.25 µg/mL (≈ 12.2 µM)

CCc1ccc(CCOc2ccc(CC3SC(=O)NC3=O)cc2)nc1 (stereo unspecified) [PIOGLITAZONE]
Activity [42]: 115 mg/dL
Activity [40]: 46.9%
Activity [41]: 46.2%

CCOC(=O)CN1C(=O)SC(Cc2ccc(OC(C)=O)cc2)C1=O (stereo unspecified)
Activity [29]: -26.8%

CN(CCOc1ccc(CC2SC(=O)NC2=O)cc1)c1ccccn1 (stereo unspecified) [ROSIGLITAZONE]
Activity [1]: 50.5 mg/dL
Activity [24]: 41%
Activity [2]: 36 mg/dL
ED25 [32]: > 30 mg/kg/day
ED25 [33]: 4.1 mg/kg/day
Activity [29]: -11.6%
Activity [25]: 65%
